IC50 data for 26 compounds are collected here from patent US11345681B1, “Inhibitors of fibroblast growth factor receptor kinases” (Kinnate Biopharma Inc., priority 2020, dated 2022).

Read-outs that look alike come from different tables or passages of the source.

The assay has as its target Wild type FGFR2 (Homo sapiens (Human), UniProt P21802). Briefly: FGFR2 kinase assay (fluorescence-based microfluidic mobility shift assay). The format is biochemical.
The mark [1] stands for this setting: wild type FGFR2 0.06 nM, 100 μM ATP, 80 minutes at room temperature, class symbols.

Sequence of Wild type FGFR2 (P21802 22-821): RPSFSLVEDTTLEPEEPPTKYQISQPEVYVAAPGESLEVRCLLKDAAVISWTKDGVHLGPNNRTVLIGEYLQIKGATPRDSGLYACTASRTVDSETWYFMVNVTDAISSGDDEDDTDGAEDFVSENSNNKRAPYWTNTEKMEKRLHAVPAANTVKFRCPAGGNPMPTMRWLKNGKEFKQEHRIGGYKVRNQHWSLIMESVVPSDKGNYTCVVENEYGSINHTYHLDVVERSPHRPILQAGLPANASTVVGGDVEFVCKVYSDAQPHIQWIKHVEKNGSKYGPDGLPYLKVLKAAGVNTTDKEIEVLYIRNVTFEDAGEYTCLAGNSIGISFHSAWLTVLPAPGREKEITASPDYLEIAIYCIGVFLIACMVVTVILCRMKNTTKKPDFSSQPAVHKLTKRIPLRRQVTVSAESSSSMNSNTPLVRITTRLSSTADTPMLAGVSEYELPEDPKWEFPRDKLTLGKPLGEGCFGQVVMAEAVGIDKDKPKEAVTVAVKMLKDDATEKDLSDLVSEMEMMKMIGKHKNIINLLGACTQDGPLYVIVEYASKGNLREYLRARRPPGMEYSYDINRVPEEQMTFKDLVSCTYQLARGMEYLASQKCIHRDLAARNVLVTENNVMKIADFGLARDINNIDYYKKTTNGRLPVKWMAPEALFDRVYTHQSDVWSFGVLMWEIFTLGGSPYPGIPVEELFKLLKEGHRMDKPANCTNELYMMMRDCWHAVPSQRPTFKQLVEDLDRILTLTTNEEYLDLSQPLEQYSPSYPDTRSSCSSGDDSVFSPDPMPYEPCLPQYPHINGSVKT

On to `C=CC(=O)N1C[C@@H](n2nc(C#Cc3cc4ncn(CC)c4cc3F)c(C(N)=O)c2NC)C[C@@H]1COC(F)(F)F` [Example 80, 3-[2-(1-Ethyl-6-fluoro-1,3-benzodiazol-5-yl)ethynyl]-5-(methylamino)-1-[(3S,5R)-1-(prop-2-enoyl)-5-[(trifluoromethoxy)methyl]pyrrolidin-3-yl]pyrazole-4-carboxamide], for which the IC50 under setting [1] is at most 100 nM.
On the same count and under the same terms, with `C=CC(=O)N1CC[C@H](n2nc(C#Cc3cc4ncn(CC)c4c(F)c3Cl)c(C(N)=O)c2NC)C1` [Example 141, 3-[2-(6-Chloro-1-ethyl-7-fluoro-1,3-benzodiazol-5-yl)ethynyl]-5-(methylamino)-1-[(3S)-1-(prop-2-enoyl)pyrrolidin-3-yl]pyrazole-4-carboxamide] the figure was at most 100 nM; with `C=CC(=O)N1C[C@@H](n2nc(C#Cc3ccc4c(c3)nc(C(F)(F)F)n4CC)c(C(N)=O)c2NC)C[C@@H]1COC` [Example 27, 1-((3S,5R)-1-acryloyl-5-(methoxymethyl)pyrrolidin-3-yl)-3-((1-ethyl-2-(trifluoromethyl)-1H-benzo[d]imidazol-5-yl)ethynyl)-5-(methylamino)-1H-pyrazole-4-carboxamide], at most 100 nM.
Same read-out and setting: with `C=CC(=O)N1C[C@@H](n2nc(C#Cc3c(F)cc4[nH]c(C)nc4c3F)c(C(N)=O)c2NC)C[C@@H]1COC` [Example 17] the figure was at most 100 nM; with `CC#CC(=O)N1C[C@@H](n2nc(C#Cc3cc4ncn(C5CC5)c4cc3F)c(C(N)=O)c2NC)C[C@@H]1COC` [Example 183, 1-((3S,5R)-1-(But-2-ynoyl)-5-(methoxymethyl)pyrrolidin-3-yl)-3-((1-cyclopropyl-6-fluoro-1H-benzo[d]imidazol-5-yl)ethynyl)-5-(methylamino)-1H-pyrazole-4-carboxamide], at most 100 nM.
For the compound `C=CC(=O)N1C[C@@H](n2nc(C#Cc3cc4ncn(C)c4cc3F)c(C(N)=O)c2NC)C[C@@H]1COC(F)(F)F` [Example 79, 3-[2-(6-Fluoro-1-methyl-1,3-benzodiazol-5-yl)ethynyl]-5-(methylamino)-1-[(3S,5R)-1-(prop-2-enoyl)-5-[(trifluoromethoxy)methyl]pyrrolidin-3-y]pyrazole-4-carboxamide], under setting [1], the IC50 was at most 100 nM.
Still for that read-out and setting: with `C=CC(=O)N1C[C@@H](n2nc(C#Cc3cc4nncc(C)c4cc3F)c(C(N)=O)c2NC)C[C@@H]1COC` [Example 266, 1-((3S,5R)-1-Acryloyl-5-(methoxymethyl)pyrrolidin-3-yl)-3-((6-fluoro-4-methylcinnolin-7-yl)ethynyl)-5-(methylamino)-1H-pyrazole-4-carboxamide] the figure was at most 100 nM; with `C=CC(=O)N1C[C@@H](n2nc(C#Cc3cc4nc[nH]c4cc3Cl)c(C(N)=O)c2NC)C[C@@H]1COC` [Example 92, 3-[2-(6-Chloro-1H-1,3-benzodiazol-5-yl)ethynyl]-1-[(3S,5R)-5-(methoxymethyl)-1-(prop-2-enoyl)pyrrolidin-3-yl]-5-(methylamino)pyrazole-4-carboxamide], at most 100 nM; with `C=CC(=O)N1C[C@@H](n2nc(C#Cc3c(F)cc4c(ncn4CC)c3F)c(C(N)=O)c2NCCO)C[C@@H]1COC` [Example 116, 3-[2-(1-Ethyl-4,6-difluoro-1,3-benzodiazol-5-yl)ethynyl]-5-[(2-hydroxyethyl)amino]-1-[(3S,5R)-5-(methoxymethyl)-1-(prop-2-enoyl)pyrrolidin-3-yl]pyrazole-4-carboxamide], at most 100 nM.
As for `C#CC(=O)N1C[C@@H](n2nc(C#Cc3cc4ncn(C5CC5)c4cc3F)c(C(N)=O)c2NC)C[C@@H]1CO` [Example 198, 3-[2-(1-Cyclopropyl-6-fluoro-1,3-benzodiazol-5-yl)ethynyl]-1-[(3S,5R)-5-(hydroxymethyl)-1-(prop-2-ynoyl)pyrrolidin-3-yl]-5-(methylamino)pyrazole-4-carboxamide], the IC50 was below 100 nM.
For the compound `C=CC(=O)N1C[C@@H](n2nc(C#Cc3cc4ncn(C5CC5)c4cc3F)c(C(N)=O)c2N)C[C@@H]1COC(F)F` [Example 211, 5-Amino-3-[2-(1-cyclopropyl-6-fluoro-1,3-benzodiazol-5-yl)ethynyl]-1-[(3S,5R)-5-[(difluoromethoxy)methyl]-1-(prop-2-enoyl)pyrrolidin-3-yl]pyrazole-4-carboxamide], under setting [1], the IC50 was at most 100 nM.
Still for that read-out and setting: next, `C=CC(=O)N1C[C@@H](n2nc(C#Cc3cc4ncc(C5CC5)n4cc3Cl)c(C(N)=O)c2NC)C[C@@H]1COC` [Example 261, 3-(2-{6-Chloro-3-cyclopropylimidazo[1,2-a]pyridin-7-yl}ethynyl)-1-[(3S,5R)-5-(methoxymethyl)-1-(prop-2-enoyl)pyrrolidin-3-yl]-5-(methylamino)pyrazole-4-carboxamide]: at most 100 nM; `C=CC(=O)N1C[C@@H](n2nc(C#Cc3cc4ncc(C)cc4cc3F)c(C(N)=O)c2NC)C[C@@H]1COC` [Example 236, 3-[2-(6-fluoro-3-methylquinolin-7-yl)ethynyl]-1-[(3S,5R)-5-(methoxymethyl)-1-(prop-2-enoyl)pyrrolidin-3-yl]-5-(methylamino)pyrazole-4-carboxamide]: at most 100 nM.
Take `C=CC(=O)N1CC[C@H](n2nc(C#Cc3cc4ncn(CC)c4c(F)c3F)c(C(N)=O)c2NC)C1` [Example 140, 3-[2-(1-Ethyl-6,7-difluoro-1,3-benzodiazol-5-yl)ethynyl]-5-(methylamino)-1-[(3S)-1-(prop-2-enoyl)pyrrolidin-3-yl]pyrazole-4-carboxamide]: the IC50 under setting [1] was at most 100 nM.
As to `C=CC(=O)N1CC(n2nc(C#Cc3cc4ncn(CC)c4cc3Cl)c(C(N)=O)c2NC)C1` [Example 192, 3-[2-(6-chloro-1-ethyl-1,3-benzodiazol-5-yl)ethynyl]-5-(methylamino)-1-[1-(prop-2-enoyl)azetidin-3-yl]pyrazole-4-carboxamide], the IC50 under setting [1] was at most 100 nM.
Take `C=CC(=O)N1C[C@@H](n2nc(C#Cc3cc4ncn(C5CC5)c4c(F)c3Cl)c(C(N)=O)c2NC)C[C@@H]1COC` [Example 147, 3-[2-(6-Chloro-1-cyclopropyl-7-fluoro-1,3-benzodiazol-5-yl)ethynyl]-1-[(3S,5R)-5-(methoxymethyl)-1-(prop-2-enoyl)pyrrolidin-3-yl]-5-(methylamino)pyrazole-4-carboxamide]: under setting [1], the IC50 is at most 100 nM.
For `C=CC(=O)N1C[C@@H](n2nc(C#Cc3ccc4cnoc4c3)c(C(N)=O)c2NC)CC1COC` (stereo in doubt) [Example 26, 1-((3S,5S)-1-acryloyl-5-(methoxymethyl)pyrrolidin-3-yl)-3-(benzo[d]isoxazol-6-ylethynyl)-5-(methylamino)-1H-pyrazole-4-carboxamide], the half-inhibitory concentration (IC50) under setting [1] lay within 100 to 1000 nM.
Take `C=CC(=O)N1C[C@@H](n2nc(C#Cc3cc4ncn(C5CC5)c4cc3F)c(C(N)=O)c2NC)C[C@@H]1CF` [Example 176, 1-((3S,5R)-1-acryloyl-5-(fluoromethyl)pyrrolidin-3-yl)-3-((1-cyclopropyl-6-fluoro-1H-benzo[d]imidazol-5-yl)ethynyl)-5-(methylamino)-1H-pyrazole-4-carboxamide]: the half-inhibitory concentration (IC50) under setting [1] is at most 100 nM.
On the same count and under the same terms, with `C=CC(=O)N1C[C@@H](n2nc(C#Cc3ccc4c(C#N)cnn4c3)c(C(N)=O)c2NC)C[C@@H]1COC` [Example 263, 3-(2-{3-Cyanopyrazolo[1,5-a]pyridin-6-yl}ethynyl)-1-[(3S,5R)-5-(methoxymethyl)-1-(prop-2-enoyl)pyrrolidin-3-yl]-5-(methylamino)pyrazole-4-carboxamide] the figure was at most 100 nM.
The same measure, in the same setting: with `C=CC(=O)N1C[C@@H](n2nc(C#Cc3cc4nc(C)n(C)c4c(F)c3F)c(C(N)=O)c2NC)C[C@@H]1COC` [Example 127, 3-[2-(6,7-Difluoro-1,2-dimethyl-1,3-benzodiazol-5-yl)ethynyl]-1-[(3S,5R)-5-(methoxymethyl)-1-(prop-2-enoyl)pyrrolidin-3-yl]-5-(methylamino) pyrazole-4-carboxamide] the figure was at most 100 nM; with `C=CC(=O)N1C[C@@H](n2nc(C#Cc3ccc4c(nc(C)n4CC)c3Cl)c(C(N)=O)c2NC)C[C@@H]1COC` [Example 38, 3-[2-(4-chloro-1-ethyl-2-methyl-1,3-benzodiazol-5-yl)ethynyl]-1-[(3S,5R)-5-(methoxymethyl)-1-(prop-2-enoyl)pyrrolidin-3-yl]-5-(methylamino)pyrazole-4-carboxamide], at most 100 nM.
On the same count and under the same terms, next, `C=CC(=O)N1C[C@@H](n2nc(C#Cc3ccc4cccnc4c3)c(C(N)=O)c2NC)C[C@@H]1COC` [Example 52, 1-[(3S,5R)-5-(Methoxymethyl)-1-(prop-2-enoyl)pyrrolidin-3-yl]-5-(methylamino)-3-[2-(quinolin-7-yl)ethynyl]pyrazole-4-carboxamide]: at most 100 nM; `C=CC(=O)N1C[C@@H](n2nc(C#Cc3ccc4scnc4c3)c(C(N)=O)c2NC)C[C@@H]1COC` [Example 103, 3-[2-(1,3-Benzothiazol-5-yl)ethynyl]-1-[(3S,5R)-5-(methoxymethyl)-1-(prop-2-enoyl)pyrrolidin-3-yl]-5-(methylamino)pyrazole-4-carboxamide]: at most 100 nM.
As to `C=CC(=O)N1C[C@@H](n2nc(C#Cc3cc4c(cc3Cl)nc(C)n4C(F)F)c(C(N)=O)c2NC)C[C@@H]1COC` [Example 95, 3-[2-[6-Chloro-3-(difluoromethyl)-2-methyl-1,3-benzodiazol-5-yl]ethynyl]-1-[(3S,5R)-5-(methoxymethyl)-1-(prop-2-enoyl)pyrrolidin-3-yl]-5-(methylamino)pyrazole-4-carboxamide], under setting [1], the IC50 lay within 100 to 1000 nM.
Consider `C=CC(=O)N1C[C@@H](n2nc(C#Cc3c(F)cc4c(nnn4C)c3F)c(C(N)=O)c2NC)C[C@@H]1COC` [Example 97, 3-[2-(4,6-Difluoro-1-methyl-1,2,3-benzotriazol-5-yl)ethynyl]-1-[(3S,5R)-5-(methoxymethyl)-1-(prop-2-enoyl)pyrrolidin-3-yl]-5-(methylamino)pyrazole-4-carboxamide], for which the IC50 under setting [1] is at most 100 nM.
As for `C=CC(=O)N1C[C@@H](n2nc(C#Cc3cc(OC)c4c(C#N)cnn4c3)c(C(N)=O)c2NC)C[C@@H]1COC` [Example 270, 1-((3S,5R)-1-acryloyl-5-(methoxymethyl)pyrrolidin-3-yl)-3-((3-cyano-4-methoxypyrazolo[1,5-a]pyridin-6-yl)ethynyl)-5-(methylamino)-1H-pyrazole-4-carboxamide], under setting [1], the IC50 was at most 100 nM.
